In brackets after ≈: the same amount, converted by molar mass.
Columns and labels:
Assay in all cases: ≥ marks a high value that may be exact or a test limit, other limits are often not marked, values filed in µg/mL are converted to µM
Alternaria alternata = tested on: Alternaria alternata
Botrytis cinerea = tested on: Botrytis cinerea
Cladosporium herbarum = tested on: Cladosporium herbarum
[1] = tested on: Clavibacter michiganensis subsp. michiganensis DSM 46294
[2] = tested on: Pectobacterium carotovorum subsp. carotovorum DSM 30168
[3] = tested on: Pseudomonas corrugata DSM 7228
[4] = tested on: Pseudomonas syringae pv. syringae DSM 10604
[5] = tested on: Pseudomonas syringae pv. tomato DC3000
[6] = tested on: Xanthomonas vesicatoria DSM 50861
[7] = tested on: Staphylococcus aureus 90857
[8] = tested on: Acinetobacter baumannii LMG 01041
[9] = tested on: Campylobacter jejuni ATCC 33291
[10] = tested on: Candida albicans ATCC 10231
[11] = tested on: Candida albicans ATCC 64550
[12] = tested on: Enterococcus faecalis JH-2-2
[13] = tested on: Enterococcus faecium ATCC 35667
[14] = tested on: Enterococcus faecium ATCC 51559
[15] = tested on: Escherichia coli ATCC 25922
[16] = tested on: Escherichia coli CGSC 5167
[17] = tested on: Escherichia coli LMG 15862
Fusarium oxysporum LD21 = tested on: Fusarium oxysporum LD21
[18] = tested on: Klebsiella aerogenes LMG 02094
[19] = tested on: Klebsiella pneumoniae ATCC 13883
[20] = tested on: Klebsiella pneumoniae ATCC 700603
[21] = tested on: Klebsiella pneumoniae LMG 20218
[22] = tested on: Listeria monocytogenes ATCC 19115
[23] = tested on: Pseudomonas aeruginosa ATCC 10145
[24] = tested on: Pseudomonas aeruginosa ATCC 27853
[25] = tested on: Pseudomonas aeruginosa LMG 6395
[26] = tested on: Salmonella enterica subsp. enterica serovar Enteritidis ATCC 13076
[27] = tested on: Shewanella putrefaciens ATCC 49138
[28] = tested on: Staphylococcus aureus ATCC 25923
[29] = tested on: Staphylococcus aureus ATCC 29213
[30] = tested on: Staphylococcus aureus ATCC 33591
[31] = tested on: Staphylococcus epidermidis ATCC 29887
[32] = tested on: Streptococcus agalactiae ATCC 13813
[33] = tested on: Streptococcus pneumoniae ATCC 33400
[34] = tested on: Streptococcus pneumoniae ATCC 700677

`CC[C@H](C)[C@H](NC(=O)[C@H](Cc1ccccc1)NC(=O)[C@H](CCCN=C(N)N)NC(=O)[C@H](CCCCN)NC(=O)[C@H](CC(C)C)NC(=O)[C@H](Cc1ccccc1)NC(=O)[C@H](CCCCN)NC(=O)[C@@H](NC(=O)[C@H](CC(C)C)NC(=O)[C@@H](N)CC(C)C)[C@@H](C)CC)C(=O)N[C@@H](CCCCN)C(=O)N[C@@H](Cc1cnc[nH]1)C(N)=O` [LLIKFLKRFIKH] was tested, and the MIC (Alternaria alternata) was no less than 64.3 µM, the MIC (Botrytis cinerea) was no less than 64.3 µM and the MIC (Cladosporium herbarum) was 12.9 µM (≈ 20 µg/mL). The MIC [1] was 3.21 µM (≈ 5 µg/mL), the MIC [2] was 25.7 µM (≈ 40 µg/mL) and the MIC [3] was 6.43 µM (≈ 9.99 µg/mL). For the same compound, the MIC [4] was 6.43 µM (≈ 9.99 µg/mL), the MIC [5] was 3.21 µM (≈ 5 µg/mL) and the MIC [6] was 3.21 µM (≈ 5 µg/mL).
With `CC[C@H](C)[C@H](NC(=O)[C@H](CCCCN)NC(=O)[C@H](CCCCN)NC(=O)[C@H](CC(C)C)NC(=O)[C@H](Cc1ccccc1)NC(=O)[C@H](CCCN=C(N)N)NC(=O)[C@@H](N)CC(C)C)C(=O)N[C@@H](CC(C)C)C(=O)N[C@@H](CCCCN)C(=O)N[C@@H](CCCCN)C(=O)N[C@@H](CC(C)C)C(=O)N[C@@H](Cc1ccccc1)C(N)=O` [LRFLKKILKKLF] the MIC [1] was 0.646 µM (≈ 0.999 µg/mL), the MIC [2] was 1.62 µM (≈ 2.5 µg/mL) and the MIC [3] was 1.62 µM (≈ 2.5 µg/mL). For the same compound, the MIC [4] was 1.62 µM (≈ 2.5 µg/mL), the MIC [5] was 0.646 µM (≈ 0.999 µg/mL) and the MIC [7] was 1.5 µM (≈ 2.32 µg/mL). For the same compound, the MIC [6] was 1.62 µM (≈ 2.5 µg/mL).
In the case of `CC[C@H](C)[C@H](NC(=O)[C@H](CCCN=C(N)N)NC(=O)[C@H](CCCN=C(N)N)NC(=O)[C@H](Cc1ccccc1)NC(=O)[C@H](CC(C)C)NC(=O)[C@H](CCCN=C(N)N)NC(=O)[C@@H](N)CCCN=C(N)N)C(=O)N[C@@H](CC(C)C)C(=O)N[C@@H](CCCN=C(N)N)C(=O)N[C@@H](Cc1c[nH]c2ccccc12)C(=O)N[C@@H](CC(C)C)C(N)=O` [RRLFRRILRWL], the MIC [8] is reported as 2 µM (≈ 3.17 µg/mL), the MIC [9] is reported as 3.79 µM (≈ 6 µg/mL) and the MIC [10] is reported as 7.57 µM (≈ 12 µg/mL). The MIC [11] was no less than 100 µM, the MIC [12] was 15.8 µM (≈ 25 µg/mL) and the MIC [13] was 1 µM (≈ 1.58 µg/mL). For the same compound, the MIC [14] was 1 µM (≈ 1.58 µg/mL), the MIC [15] was 0.5 µM (≈ 0.792 µg/mL) and the MIC [16] was 0.2 µM (≈ 0.317 µg/mL). The MIC [17] was 2 µM (≈ 3.17 µg/mL), the MIC (Fusarium oxysporum LD21) was 7.57 µM (≈ 12 µg/mL) and the MIC [18] was 8 µM (≈ 12.7 µg/mL). It also gave an MIC [19] of 0.1 µM (≈ 0.158 µg/mL), an MIC [20] of 0.3 µM (≈ 0.475 µg/mL) and an MIC [21] of 4 µM (≈ 6.34 µg/mL). For the same compound, the MIC [22] was 3.79 µM (≈ 6 µg/mL), the MIC [23] was 2.5 µM (≈ 3.96 µg/mL) and the MIC [24] was 1.5 µM (≈ 2.38 µg/mL). For the same compound, the MIC [25] was 3 µM (≈ 4.75 µg/mL), the MIC [26] was 3.79 µM (≈ 6 µg/mL) and the MIC [27] was 3.79 µM (≈ 6 µg/mL). The MIC [28] was 0.8 µM (≈ 1.27 µg/mL), the MIC [29] was 3.79 µM (≈ 6 µg/mL) and the MIC [30] was 0.3 µM (≈ 0.475 µg/mL). For the same compound, the MIC [31] was 1.89 µM (≈ 3 µg/mL), the MIC [32] was 1.89 µM (≈ 3 µg/mL) and the MIC [33] was 0.8 µM (≈ 1.27 µg/mL). For the same compound, the MIC [34] was 0.4 µM (≈ 0.634 µg/mL).

Source: DBAASP
